Measured values from patent publication US20070134326A1, “Composition for releasing a weak base for an extended period of time” (priority 2003, published 2007).

How the values were obtained:
glucose utilization = settings: PK/PD model estimate, diabetic patients; FDA Briefing Document, Avandia IND 43,468; cited from earlier work
pH dependent solubility = type: physicochemical; settings: around pH 2 vs around pH 7

## CN(CCOc1ccc(CC2SC(=O)NC2=O)cc1)c1ccccn1 (centres unmarked) [Compound A, 5-[4-[2-(N-methyl-N-(2pyridyl)amino)ethoxy]benzyl]thiazolidine-2,4-dione]
Glucose utilization
  concentration associated with half-maximal stimulation (SC50) of glucose utilization: ~52 ng/mL
pH dependent solubility
  pH dependent solubility: more soluble in the acidic conditions of the stomach (around pH 2) than in the near neutral conditions of the lower intestine (around pH 7)
